The source of these data is patent publication US12605374B2, “Methods for drug screening and compositions useful for the inhibition of cell proliferation and/or cell survival” (The Brigham and Women's Hospital, Inc., priority 2019, dated 2026).

Data set [1] has as its system Human osteosarcoma cells (U-2 OS). The data set can be described thus: EdU proliferation assay in human cell line. It counts as cell-based. To be noted: osteoblastic / immortalized cells (U-2 OS), four hours after drug introduction; positive control c-Myc inhibitor 10058-F4. The protocol:
FIG. 16 (A)-(C): Effect of DA5 in human cell culture. Proliferation of osteoblastic cells was measured following introduction of DA5.
Human osteosarcoma cells (U-2 OS) were obtained from ATCC (HTB-96) and re-suspended in McCoy's 5a medium (ATCC 30-2007) containing 10% FBS and penicillin/streptomycin. Cells were passaged at least 5 times before use in proliferation assays. To perform the proliferation assay, cells were trypsinized using standard protocols, plated at 1000 cells per well in 96-well clear-bottom black cell culture treated plates, and allowed 24 hours to attach. Compounds of interest were dissolved in DMSO and introduced at an overall DMSO concentration not exceeding 0.1% by volume. Four hours after drug introduction, cells were stained and fixed using the protocol described in the Click-iT EdU Alexa Fluor 488 Imaging kit (Thermo Fisher), with Hoescht staining used to identify total cell numbers. Each well was imaged using a Nikon Eclipse Ti Epifluorescent microscope with automated stage and counts of dividing and total cells were obtained in an automated fashion using Nikon's NIS Elements software. Percent of dividing cells reported is the result of at least 4 replicates. Controls were given the same DMSO concentration by volume as compound-treated wells.

The subject of data set [2] is zebrafish embryos. The data set can be described thus: DA5 dose, time course and washout analysis of developmental delay/arrest. It counts as in vivo. The source says: FIG. 4 (A)-(E): Function of delay/arrest compounds. 7 of the 10 compounds predicted as having a delay/arrest phenotype with the highest confidence caused obvious but divergent delay/arrest effects (A). For chemical structures associated with these Chembridge IDs see Figure S13. (www.chembridge.com). Some arrested development at shield stage, while others caused a slower developmental progression.
We reasoned that this was likely due to differences in the target affinities of the various DA compounds.

“Also recorded” adds a separate entry of the source.

In the case of `CCC1(CC)CCN(C(=O)c2cc(COc3ccc4ncccc4c3)on2)C1` [ChemBridge ID 65692859, 6-([3-[(3,3-diethylpyrrolidin-1-yl)carbonyl]isoxazol-5-yl]methoxy)quinoline], the “suppression of cell proliferation” value in data set [1] is “greater than that seen with positive control”. In data set [2] (introduced at 24 hours post fertilization and beyond), the “time course analysis: effect in more developed embryos” value is on record as “mortality being almost immediate”. Moreover, in data set [2] (introduced at early stages (<12 h), up to and during gastrulation, listed as DA5), the “time course analysis: effect on early development” value was “arrest up to and during gastrulation immediately after introduction; also recorded: arrested development at any stage of early (<12 h) development”. The developmental phenotype entry in data set [2] (introduced in zebrafish embryo medium at 5 μM) is listed as “developmental delay”; in data set [2] (introduced in zebrafish embryo medium at 10 μM) it was “sphere stage arrest”. Besides, the “recovery of embryos after washout” value in data set [2] (washout of compound) is recorded as “did not allow embryos to recover”.
